The experiment deals with Zymosan-sensitized rats. Nature of the experiment: Rodent model of zymosan-induced hyperalgesia: visceromotor response to colorectal distension. It counts as in vivo, Adult male Sprague-Dawley rats. The conditions noted are these: intracolonic zymosan (1 mL, 25 mg/mL), CRD 80 mm Hg, 20 seconds, four hours after zymosan, baseline = 100% of control. The text has this: Protocol for Evaluation of (E)-4-(1,3-bis(cyclohexylmethyl)-1,2,3,6-tetrahydro-2,6-dioxo-9H-purin-8-yl)cinnamic acid nonaethylene glycol methyl ether ester in a Rodent Model of Zymosan-Induced Hyperalgesia
Adult male Sprague-Dawley rats (400-425 g) housed 1-2 per cage in the animal care facility at the University of Iowa (approved by the American Association for Accreditation of Laboratory Animal Care). All experimental procedures were approved by the Institutional Animal Care and Use Committee at the University of Iowa.
Rats were deeply anesthetized with pentobarbital sodium (45 mg/kg) administered intraperitoneally. […]
The descending colon and rectum were distended by pressure-controlled inflation of a 7-8-cm-long flexible latex balloon tied around a flexible tube. […] Intracolonic pressure was continuously monitored by the aid of a pressure control device. Response was quantified as the visceromotor response (VMR), a contraction of the abdominal and hindlimb musculature. EMG activity produced by contraction of the external oblique musculature was quantified using Spike2 software (Cambridge Electronic Designs). Each distension trial lasted 60 seconds, and EMG activity was quantitated in 1-second bins for 20 seconds before distension (baseline), during distention, and 20 seconds after distention. The increase in total number of recorded counts during distention is defined as the response. […]

For `COCCOCCOCCOCCOCCOCCOCCOCCOCCOC(=O)/C=C/c1ccc(-c2nc3c([nH]2)c(=O)n(CC2CCCCC2)c(=O)n3CC2CCCCC2)cc1` [(E)-4-(1,3-bis(cyclohexylmethyl)-1,2,3,6-tetrahydro-2,6-dioxo-9H-purin-8-yl)cinnamic acid nonaethylene glycol methyl ether ester], the “response to colorectal distention (CRD) (as a percent of control)” value is given as “effectively decreased the response to colorectal distention down to baseline levels” (12.5 mg/kg oral gavage at time 0 and 16 hours); “effectively decreased the response to colorectal distention down to baseline levels” (25 mg/kg oral gavage at time 0 and 16 hours).
